Literature values as cited in US20050266042A1, “Methods and apparatus for treatment of aneurysmal tissue” (Medtronic Vascular, Inc., priority 2004, published 2005).

Conditions: for route of elimination / clearance: in vivo

Row | SMILES | route of elimination / clearance | also measured
1 | C[C@H](CS)C(=O)N1CCC[C@H]1C(=O)O [captopril] |  | bioavailability (given orally): about 75%
2 | NCCCC[C@H](N[C@@H](CCc1ccccc1)C(=O)O)C(=O)N1CCC[C@H]1C(=O)O [lisinopril] |  | time to peak concentrations in the plasma (oral administration): about 7 hours
3 | CCOC(=O)[C@H](CCc1ccccc1)N[C@@H](C)C(=O)N1CC2(C[C@H]1C(=O)O)SCCS2 [spirapril] | balanced elimination by the liver and kidneys | 
4 | CCC(=O)O[C@@H](O[P@](=O)(CCCCc1ccccc1)CC(=O)N1C[C@H](C2CCCCC2)C[C@H]1C(=O)O)C(C)C [fosinopril] | balanced elimination by the liver and kidneys | 
